According to PubChem BioAssay (NCI):
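Values below derive from 48-hour exposures of cells grown in 96-well plates, with endpoints linearly interpolated between the two concentrations bracketing the appropriate inhibition level. TGI denotes the concentration required for complete inhibition of growth.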

Assays:
Assay in all cases: NCI tumour cell line growth inhibition, 48 h
[1] = tested on: 786-0 renal
[2] = tested on: A498 renal
[3] = tested on: A549 NSCLC
[4] = tested on: ACHN renal
[5] = tested on: BT-549 breast
[6] = tested on: CAKI-1 renal
[7] = tested on: CCRF-CEM leukemia
[8] = tested on: COLO 205 colon
[9] = tested on: DU-145 prostate
[10] = tested on: EKVX NSCLC
[11] = tested on: HCC-2998 colon
[12] = tested on: HCT-116 colon
[13] = tested on: HCT-15 colon
[14] = tested on: HL-60(TB) leukemia
[15] = tested on: HOP-62 NSCLC
[16] = tested on: HOP-92 NSCLC
[17] = tested on: HS 578T breast
[18] = tested on: HT29 colon
[19] = tested on: K-562 leukemia
[20] = tested on: KM12 colon
[21] = tested on: LOX IMVI melanoma
[22] = tested on: M14 melanoma
[23] = tested on: MALME-3M melanoma
[24] = tested on: MCF7 breast
[25] = tested on: MDA-MB-231 breast
[26] = tested on: MDA-MB-435
[27] = tested on: MDA-N
[28] = tested on: MOLT-4 leukemia
[29] = tested on: NCI-H226 lung
[30] = tested on: NCI-H23 lung
[31] = tested on: NCI-H460 lung
[32] = tested on: NCI-H522 lung
[33] = tested on: NCI/ADR-RES ovarian
[34] = tested on: OVCAR-3 ovarian
[35] = tested on: OVCAR-4 ovarian
[36] = tested on: OVCAR-5 ovarian
[37] = tested on: OVCAR-8 ovarian
[38] = tested on: RPMI-8226 leukemia
[39] = tested on: RXF 393 renal
[40] = tested on: SF-268 CNS
[41] = tested on: SF-295 CNS
[42] = tested on: SF-539 CNS
[43] = tested on: SK-MEL-2 melanoma
[44] = tested on: SK-MEL-28 melanoma
[45] = tested on: SK-MEL-5 melanoma
[46] = tested on: SK-OV-3 ovarian
[47] = tested on: SN12C renal
[48] = tested on: SNB-19 CNS
[49] = tested on: SR leukemia
[50] = tested on: SW-620 colon
[51] = tested on: T-47D breast
[52] = tested on: TK-10 renal
[53] = tested on: U251 CNS
[54] = tested on: UACC-257 melanoma
[55] = tested on: UACC-62 melanoma
[56] = tested on: UO-31 renal
[57] = tested on: IGROV1 ovarian
[58] = tested on: PC-3 prostate
[59] = tested on: SNB-75 CNS

With `COc1cc(/C=C2/SC(c3ccccc3)N(c3cccc(Cl)c3)C2=O)cc(OC)c1OC` (centres undefined) the TGI [1] was 36.4 µM, the TGI [2] was > 100 µM and the TGI [3] was > 100 µM. For the same compound, the TGI [4] was > 100 µM, the TGI [5] was 72 µM and the TGI [6] was > 100 µM. For the same compound, the TGI [7] was 39.9 µM, the TGI [8] was > 100 µM and the TGI [9] was > 100 µM. For the same compound, the TGI [10] was > 100 µM, the TGI [11] was > 100 µM and the TGI [12] was 34.8 µM. For the same compound, the TGI [13] was > 100 µM, the TGI [14] was > 100 µM and the TGI [15] was > 100 µM. The TGI [16] was 77.4 µM, the TGI [17] was > 100 µM and the TGI [18] was 72.6 µM. For the same compound, the TGI [19] was > 100 µM, the TGI [20] was > 100 µM and the TGI [21] was 35.1 µM. For the same compound, the TGI [22] was > 100 µM, the TGI [23] was 96.5 µM and the TGI [24] was > 100 µM. For the same compound, the TGI [25] was > 100 µM, the TGI [26] was 93.4 µM and the TGI [27] was 43.2 µM. The TGI [28] was > 100 µM, the TGI [29] was > 100 µM and the TGI [30] was > 100 µM. For the same compound, the TGI [31] was > 100 µM, the TGI [32] was 26.2 µM and the TGI [33] was 73.9 µM. For the same compound, the TGI [34] was > 100 µM, the TGI [35] was > 100 µM and the TGI [36] was > 100 µM. For the same compound, the TGI [37] was 59.6 µM, the TGI [38] was 58.3 µM and the TGI [39] was 53.1 µM. The TGI [40] was > 100 µM, the TGI [41] was > 100 µM and the TGI [42] was 43 µM. The TGI [43] was > 100 µM, the TGI [44] was 90.1 µM and the TGI [45] was > 100 µM. For the same compound, the TGI [46] was > 100 µM, the TGI [47] was 37.2 µM and the TGI [48] was > 100 µM. For the same compound, the TGI [49] was 81.8 µM, the TGI [50] was > 100 µM and the TGI [51] was > 100 µM. The TGI [52] was > 100 µM, the TGI [53] was 86.8 µM and the TGI [54] was > 100 µM. For the same compound, the TGI [55] was > 100 µM and the TGI [56] was > 100 µM.

In the case of `COCO[C@@H]1C[C@H]2C(=O)N(COC)c3ccccc3C(=O)N2C1`, the TGI [1] is reported as > 100 µM, the TGI [2] is reported as > 100 µM and the TGI [3] is reported as > 100 µM. For the same compound, the TGI [4] was > 100 µM, the TGI [5] was > 100 µM and the TGI [6] was > 100 µM. The TGI [7] was > 100 µM, the TGI [8] was > 100 µM and the TGI [9] was > 100 µM. For the same compound, the TGI [10] was > 100 µM, the TGI [12] was > 100 µM and the TGI [13] was > 100 µM. The TGI [14] was > 100 µM, the TGI [15] was > 100 µM and the TGI [17] was > 100 µM. For the same compound, the TGI [18] was > 100 µM, the TGI [57] was > 100 µM and the TGI [20] was > 100 µM. The TGI [21] was > 100 µM, the TGI [22] was > 100 µM and the TGI [23] was > 100 µM. The TGI [24] was > 100 µM, the TGI [25] was > 100 µM and the TGI [26] was > 100 µM. For the same compound, the TGI [27] was > 100 µM, the TGI [28] was > 100 µM and the TGI [29] was > 100 µM. The TGI [30] was > 100 µM, the TGI [32] was > 100 µM and the TGI [33] was > 100 µM. For the same compound, the TGI [35] was > 100 µM, the TGI [36] was > 100 µM and the TGI [37] was > 100 µM. The TGI [58] was > 100 µM, the TGI [39] was > 100 µM and the TGI [40] was > 100 µM. The TGI [41] was > 100 µM, the TGI [42] was > 100 µM and the TGI [43] was > 100 µM. For the same compound, the TGI [44] was > 100 µM, the TGI [45] was > 100 µM and the TGI [46] was > 100 µM. For the same compound, the TGI [47] was > 100 µM, the TGI [48] was > 100 µM and the TGI [59] was > 100 µM. The TGI [50] was > 100 µM, the TGI [51] was > 100 µM and the TGI [52] was > 100 µM. The TGI [53] was > 100 µM, the TGI [54] was > 100 µM and the TGI [55] was > 100 µM. For the same compound, the TGI [56] was > 100 µM.

In the case of `COC(=O)[C@H](Cc1ccccc1)NC(=O)N1CCCN(C(=O)N[C@@H](Cc2ccccc2)C(=O)OC)CCCN(C(=O)N[C@@H](Cc2ccccc2)C(=O)OC)CCC1`, the TGI [1] is reported as 32.1 µM, the TGI [2] is reported as 44.3 µM and the TGI [3] is reported as 76.4 µM. The TGI [4] was 31.3 µM, the TGI [5] was 57.1 µM and the TGI [6] was > 100 µM. It also gave a TGI [7] of 92.8 µM, a TGI [8] of 34.8 µM and a TGI [9] of 34 µM. For the same compound, the TGI [10] was 53.5 µM, the TGI [11] was 38.6 µM and the TGI [12] was 38.9 µM. It also gave a TGI [13] of 63.4 µM, a TGI [14] of 69.2 µM and a TGI [15] of 35.5 µM. It also gave a TGI [16] of 30.3 µM, a TGI [17] of 44.6 µM and a TGI [18] of 33.5 µM. For the same compound, the TGI [57] was 31.3 µM, the TGI [19] was > 100 µM and the TGI [20] was > 100 µM. It also gave a TGI [21] of 29.8 µM, a TGI [22] of 32.4 µM and a TGI [23] of 34.1 µM. The TGI [24] was 49.3 µM, the TGI [26] was 54.7 µM and the TGI [27] was 45.8 µM. For the same compound, the TGI [28] was 40.8 µM, the TGI [29] was 31.5 µM and the TGI [30] was 53.3 µM. It also gave a TGI [31] of 81.5 µM, a TGI [32] of 35.2 µM and a TGI [33] of 74.7 µM. It also gave a TGI [34] of 32.4 µM, a TGI [35] of 54.7 µM and a TGI [36] of 33 µM. For the same compound, the TGI [37] was 47.2 µM, the TGI [58] was 31.1 µM and the TGI [38] was > 100 µM. The TGI [39] was 32.6 µM, the TGI [40] was 34 µM and the TGI [41] was 37.6 µM. For the same compound, the TGI [43] was 29.5 µM, the TGI [44] was 35.4 µM and the TGI [45] was 35.9 µM. The TGI [46] was 73.9 µM, the TGI [47] was 39.1 µM and the TGI [48] was 74.8 µM. The TGI [59] was 30.6 µM, the TGI [50] was 39.7 µM and the TGI [51] was 34.8 µM. It also gave a TGI [52] of 65.4 µM, a TGI [53] of 32.8 µM and a TGI [54] of 35.5 µM. For the same compound, the TGI [55] was 30.2 µM and the TGI [56] was 29.4 µM.
